Data set [1] in a line: xn = mol fraction of the nth substance listed. Particulars: 101 kPa, Liquid, x1 = 1.
Data set [2] is described as follows: refractive index (Na D-line) (dimensionless); xn = mol fraction of the nth substance listed. Particulars: 101 kPa, Liquid, x1 = 1.

Experimental findings from the NIST ThermoML archive (doi:10.1021/je049609w) are described below.

Numbers after ± are expanded uncertainties.

For the compound `C1COCCO1` [1,4-dioxane] + Clc1ccccc1Cl, the figures for the mass density in data set [1] (298.15 K), in data set [1] (303.15 K) and in data set [1] (308.15 K) were 1028.6 ± 1.4 kg/m3, 1022.9 ± 1.5 kg/m3 and 1017.2 ± 1.5 kg/m3, respectively. Further, the speed of sound in data set [1] (298.15 K) was 1345 ± 7 m/s. The viscosity is reported as 1.196 ± 0.038 mPa·s in data set [1] (298.15 K), 1.102 ± 0.035 mPa·s in data set [1] (303.15 K) and 1.008 ± 0.032 mPa·s in data set [1] (308.15 K). Further, the refractive index in data set [2] (298.15 K) came out at 1.4203 ± 0.0024; in data set [2] (303.15 K), 1.4164 ± 0.0024; in data set [2] (308.15 K) it was 1.4145 ± 0.0024.
On to `C1COCCO1` [1,4-dioxane] + CC(=O)N(C)C, for which the mass density in data set [1] (298.15 K) came to 1028.6 ± 5.3 kg/m3; in data set [1] (303.15 K), 1022.9 ± 5.5 kg/m3; in data set [1] (308.15 K) it was 1017.2 ± 5.7 kg/m3. The speed of sound in data set [1] (298.15 K) turned out to be 1345 ± 7 m/s. Also, the viscosity came to 1.196 ± 0.038 mPa·s in data set [1] (298.15 K), 1.095 ± 0.035 mPa·s in data set [1] (303.15 K) and 1.008 ± 0.032 mPa·s in data set [1] (308.15 K). Also, the refractive index in data set [2] (298.15 K) amounted to 1.4203 ± 0.0024; in data set [2] (303.15 K), 1.4164 ± 0.0024; in data set [2] (308.15 K) it was 1.4145 ± 0.0024.
Turning to `C1COCCO1` [1,4-dioxane] + OCCCl, the mass density in data set [1] (298.15 K) amounted to 1028.6 ± 1.4 kg/m3; in data set [1] (303.15 K), 1022.9 ± 1.5 kg/m3; in data set [1] (308.15 K), 1017.2 ± 1.5 kg/m3. Also, the speed of sound in data set [1] (298.15 K) stood at 1345 ± 7 m/s. Further, the viscosity in data set [1] (298.15 K) was found to be 1.196 ± 0.038 mPa·s; in data set [1] (303.15 K), 1.095 ± 0.035 mPa·s; in data set [1] (308.15 K) it was 1.008 ± 0.032 mPa·s. Further, the refractive index was 1.4203 ± 0.0024 in data set [2] (298.15 K), 1.4164 ± 0.0024 in data set [2] (303.15 K) and 1.4145 ± 0.0024 in data set [2] (308.15 K).
